Reference: patent publication US20260355225A1 (priority 2022, published 2026)
≈ marks a conversion by molar mass, not a printed value. Where “and” joins values, the source holds several entries; their conditions need not be identical. Equal values may be shown once.

Tests used:
[1] = Cytotoxicity of D-xylose, MTT assay, absence of viral infection (Example 1); type: cell-based; settings: monkey, vero cells
Experimental: (§1) Cells (Vero E6) were used, with two modes of administration: either at the same time or 6 h before infection with SARS-CoV-2 (isolated early).
(§2) The readout for this test is CPE, so the infection will be stopped at 72 hpi (hours post-infection), and the compound will remain for the duration of the experiment. In parallel, the cytotoxicity of the same compound concentrations will be tested in the absence of viral infection.
(§3) The day before the experiment, the 8,000 cells/well are seeded in two 96-well plates (clear, Sarstedt), one for the antiviral study and one for the cytotoxicity study.
(§4) 134.4 μl of the 1 M composition is transferred to 1,465.6 μl of infection medium (=84 mM, twice the final maximum concentration).
(§5) Next, the cell support in the cytotoxicity plate is removed.
(§6) Immediately afterwards, 50 μl of undiluted infection medium is added to all the wells.
(§7) Next, 50 μl of infection medium without diluent is added to columns 4 to 6.
(§8) Next, the plate is incubated at 37 °C, 5% CO2 for 48 h.
(§9) After 72 h, when the CPE is evident, an MTT assay is performed for the antiviral and cytotoxicity plates.

Vero AD cells = experiment: as above; type: cell-based; settings: 6 h pre-treatment
Experimental: as §1, §2, §3, §4, §5, §6, §7, §8, §9

[2] = according to Sigma cat #1.08689; cited from earlier work
cells = settings: cited from earlier work
[3] = test system: glycated hemoglobin (HbA1c); settings: healthy person; cited from earlier work
[4] = D-xylose absorption tests; cited from earlier work
glycosaminoglycans = settings: fibroblasts, keranocytes, CHO, BHK, BAE and other cells; cited from earlier work
[5] = Cytotoxicity of D-xylose alone or + insulin, MTT assay, absence of viral infection (Example 2); settings: human, hela tzmbl cells
HeLa TZMBL cells = experiment: as above; settings: for Cytotoxicity percentage / Viability percentage: 2880 min
[6] = Antiviral assay against HIV-1 NL4-3, percentage of infected cells by immunofluorescence (Example 2); settings: human, hela tzmbl cells, Viability Percentages, D-xylose 104.000 mM, replicate wells
HIV-1 NL4-3 = experiment: as above; settings: Human immunodeficiency virus 1, NL43, 48 h
SARS-CoV-2 = experiment: Antiviral assay, inhibition of virus-induced cytopathic effect (CPE) of SARS-CoV-2 by MTT assay (Example 1); settings: for Viability percentage: 4320 min

## O=C[C@H](O)[C@@H](O)[C@H](O)CO [D-xylose]
[1]; 6 h pre-treatment, 0.328125 mM, read-out: Viability percentage
  viability at 328.125 µM: 130%
[1]; 6 h pre-treatment, 0.65625 mM, read-out: Viability percentage
  viability at 656.25 µM: 90.9%
[1]; 6 h pre-treatment, 1.3125 mM, read-out: Viability percentage
  viability at 1312.5 µM: 122%
[1]; 6 h pre-treatment, 2.625 mM, read-out: Viability percentage
  viability at 2625 µM: 108%
[1]; 6 h pre-treatment, 5.25 mM, read-out: Viability percentage
  viability at 5250 µM: 115%
[1]; 6 h pre-treatment, 10.5 mM, read-out: Viability percentage
  viability at 10500 µM: 109%
[1]; 6 h pre-treatment, 21 mM, read-out: Viability percentage
  viability at 21000 µM: 110%
[1]; 6 h pre-treatment, 42 mM, read-out: Viability percentage
  viability at 42000 µM: 108%
[1]; MTT, no virus
  CC50: > 42 mM
Vero AD cells; 0.328125 mM, 328.125 µM
  Viability percentage: 119.81%
Vero AD cells; 0.65625 mM, 656.25 µM
  Viability percentage: 100.84% and 108.33%
Vero AD cells; 1.3125 mM, 1312.5 µM
  Cytotoxicity percentage: −21.81% and −24.31% and −17.82%
  Viability percentage: 124.31% and 117.82%
Vero AD cells; 2.625 mM, 2625 µM
  Viability percentage: 118.32% and 114.82%
Vero AD cells; 5.25 mM, 5250 µM
  Cytotoxicity percentage: −15.32% and −18.81% and −10.83%
  Viability percentage: 118.81% and 110.83%
Vero AD cells; 10.5 mM, 10500 µM
  Cytotoxicity percentage: −9.33% and −10.83% and −6.33%
  Viability percentage: 110.83% and 106.33%
Vero AD cells; 21 mM, 21000 µM
  Cytotoxicity percentage: −9.83% and −10.33%
  Viability percentage: 110.33%
Vero AD cells; 42 mM, 42000 µM
  Cytotoxicity percentage: −7.83% and −9.83% and −3.34%
  Viability percentage: 103.34%
[2]
  solubility: 550 mg/mL (≈ 3660 mM)
cells; in the presence of insulin
  xylose in cytosol at equilibrium: 80%
  xylose in plasma at equilibrium: 20%
cells; with insulin
  increase of penetration rate of D-xylose into the cells: two to five times
[3]
  effect on glycated hemoglobin (HbA1c) levels: little or no effect
[4]
  side effects: laxative effects in adults, diarrhea, nausea, and vomiting
glycosaminoglycans
  stimulation of glycosaminoglycans: proven glycosaminoglycan stimulators of several cell types
[5]; Cytotoxicity percentage, D-xylose 3.25 mM
  cytotoxicity at 48 h, 3250 µM: 5.24%
[5]; Cytotoxicity percentage, D-xylose 26 mM
  cytotoxicity at 48 h, 26000 µM: 9.04%
[5]; Cytotoxicity percentage, D-xylose 52 mM
  cytotoxicity at 48 h, 52000 µM: 12.1%
[5]; Cytotoxicity percentage, D-xylose 104 mM
  cytotoxicity at 48 h, 104000 µM: 14.1%
[5]; Viability percentage, D-xylose 1.625 mM
  viability at 48 h, 1625 µM: 99.5%
[5]; Viability percentage, D-xylose 3.25 mM
  viability at 48 h, 3250 µM: 94.8%
[5]; Viability percentage, D-xylose 6.5 mM
  viability at 48 h, 6500 µM: 89.8%
[5]; Viability percentage, D-xylose 13 mM
  viability at 48 h, 13000 µM: 90.1%
[5]; Viability percentage, D-xylose 26 mM
  viability at 48 h, 26000 µM: 91%
[5]; Viability percentage, D-xylose 52 mM
  viability at 48 h, 52000 µM: 87.9%
[5]; Viability percentage, D-xylose 104 mM
  viability at 48 h, 104000 µM: 85.9%
HeLa TZMBL cells; 48 h, MTT
  median cytotoxic concentration (TC50): 260.3
HeLa TZMBL cells; D-xylose 1.625 mM
  Results for Cytotoxicity (MTT readout): 2.399 and 2.351 and 2.424
HeLa TZMBL cells; D-xylose 1.625 mM, 1625 µM
  Cytotoxicity percentage: 0.47% and 2.50% and −0.58%
  Viability percentage: 97.50% and 100.58%
HeLa TZMBL cells; D-xylose 3.25 mM
  Results for Cytotoxicity (MTT readout): 2.286 and 2.266 and 2.242
HeLa TZMBL cells; D-xylose 3.25 mM, 3250 µM
  Cytotoxicity percentage: 6.09% and 7.10%
  Viability percentage: 93.91% and 92.90%
HeLa TZMBL cells; D-xylose 6.5 mM
  Results for Cytotoxicity (MTT readout): 2.168 and 2.211 and 2.316
HeLa TZMBL cells; D-xylose 6.5 mM, 6500 µM
  Cytotoxicity percentage: 10.22% and 8.41% and 3.98%
  Viability percentage: 91.59% and 96.02%
HeLa TZMBL cells; D-xylose 13 mM
  Results for Cytotoxicity (MTT readout): 2.175 and 2.293 and 2.032
HeLa TZMBL cells; D-xylose 13 mM, 13000 µM
  Viability percentage: 95.05% and 84.04%
HeLa TZMBL cells; D-xylose 26 mM
  Results for Cytotoxicity (MTT readout): 2.196 and 2.137 and 2.158
HeLa TZMBL cells; D-xylose 26 mM, 26000 µM
  Cytotoxicity percentage: 11.53% and 10.64%
  Viability percentage: 88.47% and 89.36%
HeLa TZMBL cells; D-xylose 52 mM
  Results for Cytotoxicity (MTT readout): 2.123 and 2.266 and 2.199
HeLa TZMBL cells; D-xylose 52 mM, 52000 µM
  Cytotoxicity percentage: 6.09% and 8.91%
  Viability percentage: 93.91% and 91.09%
HeLa TZMBL cells; D-xylose 104 mM
  Results for Cytotoxicity (MTT readout): 2.075 and 2.027 and 2.064
HeLa TZMBL cells; D-xylose 104 mM, 104000 µM
  Cytotoxicity percentage: 16.17% and 14.61%
  Viability percentage: 83.83% and 85.39%
[6]
  viability at 48 h, 104000 µM: 20.8%
HIV-1 NL4-3; read-out: % Infection, D-xylose 1.625 mM, replicate wells
  activity at 1625 µM: 20.8%
HIV-1 NL4-3; read-out: % Infection, D-xylose 3.250 mM, replicate wells
  activity at 3250 µM: 20.4%
HIV-1 NL4-3; read-out: % Infection, D-xylose 6.500 mM, replicate wells
  activity at 6500 µM: 18.1%
HIV-1 NL4-3; read-out: % Infection, D-xylose 13.000 mM, replicate wells
  activity at 13000 µM: 20.4%
HIV-1 NL4-3; read-out: % Infection, D-xylose 26.000 mM, replicate wells
  activity at 26000 µM: 20.6%
HIV-1 NL4-3; read-out: % Infection, D-xylose 52.000 mM, replicate wells
  activity at 52000 µM: 20.2%
HIV-1 NL4-3; read-out: % Infection, D-xylose 104.000 mM, replicate wells
  activity at 104000 µM: 14.9%
SARS-CoV-2; 6 h pre-treatment, 0.328125 mM
  absorbance at 570 nm: 0.067 and 0.073 and 0.088
SARS-CoV-2; 6 h pre-treatment, 0.65625 mM
  absorbance at 570 nm: 0.08 and 0.081 and 0.085
SARS-CoV-2; 6 h pre-treatment, 0.65625 mM, 656.25 µM
  Viability percentage: −8.66% and −7.49% and −2.79%
SARS-CoV-2; 6 h pre-treatment, 1.3125 mM
  absorbance at 570 nm: 0.08 and 0.099 and 0.091
SARS-CoV-2; 6 h pre-treatment, 2.625 mM
  absorbance at 570 nm: 0.075 and 0.121 and 0.124
SARS-CoV-2; 6 h pre-treatment, 5.25 mM
  absorbance at 570 nm: 0.087 and 0.106 and 0.098
SARS-CoV-2; 6 h pre-treatment, 10.5 mM
  absorbance at 570 nm: 0.102 and 0.096
SARS-CoV-2; 6 h pre-treatment, 21 mM
  absorbance at 570 nm: 0.116 and 0.109 and 0.098
SARS-CoV-2; 6 h pre-treatment, 42 mM
  absorbance at 570 nm: 0.095 and 0.09 and 0.108
SARS-CoV-2; Severe acute respiratory syndrome coronavirus 2, Vero C1008, in Chlorocebus sabaeus, 72 h, read-out: Viability percentage, 6 h pre-treatment, 10.5 mM
  viability at 10500 µM: 17.2%
SARS-CoV-2; Severe acute respiratory syndrome coronavirus 2, Vero C1008, in Chlorocebus sabaeus, 72 h, read-out: Viability percentage, at time of infection, 0.65625 mM
  viability at 656.25 µM: 10.1%
SARS-CoV-2; Severe acute respiratory syndrome coronavirus 2, co-administration of D-xylose and SARS-CoV-2
  IC50: 95.5 mM
SARS-CoV-2; Severe acute respiratory syndrome coronavirus 2, pre-incubation of D-xylose 6 h prior to SARS-CoV-2 infection
  IC50: 26.2 mM
SARS-CoV-2; at time of infection, 0.328125 mM
  absorbance at 570 nm: 0.088 and 0.087
SARS-CoV-2; at time of infection, 0.328125 mM, 328.125 µM
  Viability percentage: 0.73% and −0.44%
SARS-CoV-2; at time of infection, 0.65625 mM
  absorbance at 570 nm: 0.096 and 0.099 and 0.101
SARS-CoV-2; at time of infection, 0.65625 mM, 656.25 µM
  Viability percentage: 13.66% and 16.01%
SARS-CoV-2; at time of infection, 1.3125 mM
  absorbance at 570 nm: 0.096 and 0.094 and 0.091
SARS-CoV-2; at time of infection, 1.3125 mM, 1312.5 µM
  Viability percentage: 7.78% and 4.26%
SARS-CoV-2; at time of infection, 2.625 mM
  absorbance at 570 nm: 0.141 and 0.113 and 0.103
SARS-CoV-2; at time of infection, 5.25 mM
  absorbance at 570 nm: 0.09 and 0.137 and 0.126
SARS-CoV-2; at time of infection, 10.5 mM
  absorbance at 570 nm: 0.109 and 0.131 and 0.107
SARS-CoV-2; at time of infection, 21 mM
  absorbance at 570 nm: 0.111 and 0.151 and 0.113
SARS-CoV-2; at time of infection, 42 mM
  absorbance at 570 nm: 0.059 and 0.095 and 0.09
